In the NIST ThermoML archive (doi:10.1021/je301123j):
Numbers after ± are expanded uncertainties.

Assay: xn = mol fraction of the nth substance listed
Details: for surface tension liquid-gas: Ring tensiometer; for mass density / speed of sound / viscosity: 100 kPa, Liquid

Structure (SMILES): CCN1CCCC1=O [1-ethyl-2-pyrrolidinone] + OCCNCCO
- surface tension liquid-gas (293.15 K, x1 = 0.1): 44.5 ± 0.8 mN/m
- surface tension liquid-gas (293.15 K, x1 = 0.2005): 42.8 ± 0.8 mN/m
- surface tension liquid-gas (293.15 K, x1 = 0.3001): 41.2 ± 0.8 mN/m
- surface tension liquid-gas (293.15 K, x1 = 0.4002): 40.1 ± 0.8 mN/m
- surface tension liquid-gas (293.15 K, x1 = 0.4999): 39.2 ± 0.8 mN/m
- surface tension liquid-gas (293.15 K, x1 = 0.6): 38.1 ± 0.8 mN/m
- surface tension liquid-gas (293.15 K, x1 = 0.7001): 37.8 ± 0.8 mN/m
- surface tension liquid-gas (293.15 K, x1 = 0.8001): 37.2 ± 0.8 mN/m
- surface tension liquid-gas (293.15 K, x1 = 0.8995): 36.5 ± 0.8 mN/m
- surface tension liquid-gas (293.15 K, x1 = 1): 36.5 ± 0.8 mN/m
- mass density (293.15 K, x1 = 0.1): 1084.34 ± 1.8 kg/m3
- speed of sound (293.15 K, x1 = 0.1): 1700.4 ± 4 m/s
- viscosity (293.15 K, x1 = 0.1): 462.69 ± 35 mPa·s
- mass density (293.15 K, x1 = 0.2005): 1072.76 ± 1.8 kg/m3
- speed of sound (293.15 K, x1 = 0.2005): 1666.7 ± 4 m/s
- viscosity (293.15 K, x1 = 0.2005): 227.23 ± 12 mPa·s
- mass density (293.15 K, x1 = 0.3001): 1061.83 ± 1.7 kg/m3
- speed of sound (293.15 K, x1 = 0.3001): 1638.2 ± 4 m/s
- viscosity (293.15 K, x1 = 0.3001): 109.6 ± 3.3 mPa·s
- mass density (293.15 K, x1 = 0.4002): 1051.18 ± 1.7 kg/m3
- speed of sound (293.15 K, x1 = 0.4002): 1611.7 ± 4 m/s
- viscosity (293.15 K, x1 = 0.4002): 51.6 ± 0.77 mPa·s
- mass density (293.15 K, x1 = 0.4999): 1040.9 ± 1.6 kg/m3
- speed of sound (293.15 K, x1 = 0.4999): 1589.2 ± 4 m/s
- viscosity (293.15 K, x1 = 0.4999): 26.02 ± 0.42 mPa·s
- mass density (293.15 K, x1 = 0.6): 1031.22 ± 1.6 kg/m3
- speed of sound (293.15 K, x1 = 0.6): 1569.3 ± 4 m/s
- viscosity (293.15 K, x1 = 0.6): 13.84 ± 0.22 mPa·s
- mass density (293.15 K, x1 = 0.7001): 1022.09 ± 1.6 kg/m3
- speed of sound (293.15 K, x1 = 0.7001): 1552.5 ± 4 m/s
- viscosity (293.15 K, x1 = 0.7001): 8.154 ± 0.13 mPa·s
- mass density (293.15 K, x1 = 0.8001): 1013.33 ± 1.5 kg/m3
- speed of sound (293.15 K, x1 = 0.8001): 1538.4 ± 4.1 m/s
- viscosity (293.15 K, x1 = 0.8001): 4.999 ± 0.081 mPa·s
- mass density (293.15 K, x1 = 0.8995): 1005.23 ± 1.5 kg/m3
- speed of sound (293.15 K, x1 = 0.8995): 1524.5 ± 4.1 m/s
- viscosity (293.15 K, x1 = 0.8995): 3.117 ± 0.051 mPa·s
- mass density (293.15 K, x1 = 1): 997.91 ± 1.6 kg/m3
- speed of sound (293.15 K, x1 = 1): 1513.2 ± 4.1 m/s
- viscosity (293.15 K, x1 = 1): 2.132 ± 0.032 mPa·s
- surface tension liquid-gas (303.15 K, x1 = 0.1): 43.6 ± 0.8 mN/m
- surface tension liquid-gas (303.15 K, x1 = 0.2005): 41.3 ± 0.8 mN/m
- surface tension liquid-gas (303.15 K, x1 = 0.3001): 40.1 ± 0.8 mN/m
- surface tension liquid-gas (303.15 K, x1 = 0.4002): 39.1 ± 0.8 mN/m
- surface tension liquid-gas (303.15 K, x1 = 0.4999): 38.4 ± 0.8 mN/m
- surface tension liquid-gas (303.15 K, x1 = 0.6): 37.1 ± 0.8 mN/m
- surface tension liquid-gas (303.15 K, x1 = 0.7001): 36.7 ± 0.8 mN/m
- surface tension liquid-gas (303.15 K, x1 = 0.8001): 36.2 ± 0.8 mN/m
- surface tension liquid-gas (303.15 K, x1 = 0.8995): 35.3 ± 0.8 mN/m
- surface tension liquid-gas (303.15 K, x1 = 1): 35.2 ± 0.8 mN/m
- mass density (303.15 K, x1 = 0.1): 1077.54 ± 1.8 kg/m3
- speed of sound (303.15 K, x1 = 0.1): 1672.2 ± 4 m/s
- viscosity (303.15 K, x1 = 0.1): 211.41 ± 11 mPa·s
- mass density (303.15 K, x1 = 0.2005): 1065.85 ± 1.7 kg/m3
- speed of sound (303.15 K, x1 = 0.2005): 1637.9 ± 4 m/s
- viscosity (303.15 K, x1 = 0.2005): 110.73 ± 3.3 mPa·s
- mass density (303.15 K, x1 = 0.3001): 1054.58 ± 1.6 kg/m3
- speed of sound (303.15 K, x1 = 0.3001): 1607.8 ± 4 m/s
- viscosity (303.15 K, x1 = 0.3001): 55.57 ± 0.78 mPa·s
- mass density (303.15 K, x1 = 0.4002): 1043.68 ± 1.6 kg/m3
- speed of sound (303.15 K, x1 = 0.4002): 1581 ± 4 m/s
- viscosity (303.15 K, x1 = 0.4002): 29.59 ± 0.45 mPa·s
- mass density (303.15 K, x1 = 0.4999): 1033.22 ± 1.5 kg/m3
- speed of sound (303.15 K, x1 = 0.4999): 1557.4 ± 4 m/s
- viscosity (303.15 K, x1 = 0.4999): 16.21 ± 0.25 mPa·s
- mass density (303.15 K, x1 = 0.6): 1023.25 ± 1.5 kg/m3
- speed of sound (303.15 K, x1 = 0.6): 1536.3 ± 4 m/s
- viscosity (303.15 K, x1 = 0.6): 9.351 ± 0.14 mPa·s
- mass density (303.15 K, x1 = 0.7001): 1013.95 ± 1.5 kg/m3
- speed of sound (303.15 K, x1 = 0.7001): 1518.1 ± 4 m/s
- viscosity (303.15 K, x1 = 0.7001): 5.87 ± 0.09 mPa·s
- mass density (303.15 K, x1 = 0.8001): 1005.2 ± 1.5 kg/m3
- speed of sound (303.15 K, x1 = 0.8001): 1503.6 ± 4 m/s
- viscosity (303.15 K, x1 = 0.8001): 3.826 ± 0.061 mPa·s
- mass density (303.15 K, x1 = 0.8995): 996.81 ± 1.5 kg/m3
- speed of sound (303.15 K, x1 = 0.8995): 1487.8 ± 4.1 m/s
- viscosity (303.15 K, x1 = 0.8995): 2.496 ± 0.04 mPa·s
- mass density (303.15 K, x1 = 1): 989.34 ± 1.6 kg/m3
- speed of sound (303.15 K, x1 = 1): 1475 ± 4.1 m/s
- viscosity (303.15 K, x1 = 1): 1.777 ± 0.027 mPa·s
- surface tension liquid-gas (313.15 K, x1 = 0.1): 42 ± 0.8 mN/m
- surface tension liquid-gas (313.15 K, x1 = 0.2005): 40.4 ± 0.8 mN/m
- surface tension liquid-gas (313.15 K, x1 = 0.3001): 38.8 ± 0.8 mN/m
- surface tension liquid-gas (313.15 K, x1 = 0.4002): 38.3 ± 0.8 mN/m
- surface tension liquid-gas (313.15 K, x1 = 0.4999): 37 ± 0.8 mN/m
- surface tension liquid-gas (313.15 K, x1 = 0.6): 36.3 ± 0.8 mN/m
- surface tension liquid-gas (313.15 K, x1 = 0.7001): 35.9 ± 0.8 mN/m
- surface tension liquid-gas (313.15 K, x1 = 0.8001): 34.8 ± 0.8 mN/m
- surface tension liquid-gas (313.15 K, x1 = 0.8995): 34.4 ± 0.8 mN/m
- surface tension liquid-gas (313.15 K, x1 = 1): 34.2 ± 0.8 mN/m
- mass density (313.15 K, x1 = 0.1): 1070.86 ± 1.7 kg/m3
- speed of sound (313.15 K, x1 = 0.1): 1645.8 ± 4 m/s
- viscosity (313.15 K, x1 = 0.1): 108.68 ± 3.1 mPa·s
- mass density (313.15 K, x1 = 0.2005): 1058.79 ± 1.6 kg/m3
- speed of sound (313.15 K, x1 = 0.2005): 1610.1 ± 3.9 m/s
- viscosity (313.15 K, x1 = 0.2005): 57.66 ± 0.76 mPa·s
- mass density (313.15 K, x1 = 0.3001): 1047.53 ± 1.6 kg/m3
- speed of sound (313.15 K, x1 = 0.3001): 1578.7 ± 3.9 m/s
- viscosity (313.15 K, x1 = 0.3001): 32.13 ± 0.46 mPa·s
- mass density (313.15 K, x1 = 0.4002): 1036.08 ± 1.5 kg/m3
- speed of sound (313.15 K, x1 = 0.4002): 1550.5 ± 3.9 m/s
- viscosity (313.15 K, x1 = 0.4002): 18.38 ± 0.27 mPa·s
- mass density (313.15 K, x1 = 0.4999): 1025.43 ± 1.5 kg/m3
- speed of sound (313.15 K, x1 = 0.4999): 1526.2 ± 3.9 m/s
- viscosity (313.15 K, x1 = 0.4999): 10.8 ± 0.16 mPa·s
- mass density (313.15 K, x1 = 0.6): 1015.25 ± 1.4 kg/m3
- speed of sound (313.15 K, x1 = 0.6): 1503.7 ± 4 m/s
- viscosity (313.15 K, x1 = 0.6): 6.732 ± 0.1 mPa·s
- mass density (313.15 K, x1 = 0.7001): 1005.78 ± 1.4 kg/m3
- speed of sound (313.15 K, x1 = 0.7001): 1484.4 ± 4 m/s
- viscosity (313.15 K, x1 = 0.7001): 4.419 ± 0.068 mPa·s
- mass density (313.15 K, x1 = 0.8001): 996.9 ± 1.4 kg/m3
- speed of sound (313.15 K, x1 = 0.8001): 1469.1 ± 4 m/s
- viscosity (313.15 K, x1 = 0.8001): 3.014 ± 0.047 mPa·s
- mass density (313.15 K, x1 = 0.8995): 988.38 ± 1.6 kg/m3
- speed of sound (313.15 K, x1 = 0.8995): 1451.6 ± 4 m/s
- viscosity (313.15 K, x1 = 0.8995): 2.058 ± 0.033 mPa·s
- mass density (313.15 K, x1 = 1): 980.76 ± 1.7 kg/m3
- speed of sound (313.15 K, x1 = 1): 1437.6 ± 4.1 m/s
- viscosity (313.15 K, x1 = 1): 1.515 ± 0.023 mPa·s
- mass density (323.15 K, x1 = 0.1): 1064.04 ± 1.6 kg/m3
- speed of sound (323.15 K, x1 = 0.1): 1619.5 ± 3.9 m/s
- viscosity (323.15 K, x1 = 0.1): 57.82 ± 0.7 mPa·s
- mass density (323.15 K, x1 = 0.2005): 1051.64 ± 1.6 kg/m3
- speed of sound (323.15 K, x1 = 0.2005): 1582.5 ± 3.9 m/s
- viscosity (323.15 K, x1 = 0.2005): 33.78 ± 0.46 mPa·s
- mass density (323.15 K, x1 = 0.3001): 1039.8 ± 1.5 kg/m3
- speed of sound (323.15 K, x1 = 0.3001): 1550 ± 3.9 m/s
- viscosity (323.15 K, x1 = 0.3001): 20.16 ± 0.28 mPa·s
- mass density (323.15 K, x1 = 0.4002): 1028.42 ± 1.4 kg/m3
- speed of sound (323.15 K, x1 = 0.4002): 1519.9 ± 3.9 m/s
- viscosity (323.15 K, x1 = 0.4002): 12.28 ± 0.17 mPa·s
- mass density (323.15 K, x1 = 0.4999): 1017.57 ± 1.4 kg/m3
- speed of sound (323.15 K, x1 = 0.4999): 1495.1 ± 3.9 m/s
- viscosity (323.15 K, x1 = 0.4999): 7.624 ± 0.11 mPa·s
- mass density (323.15 K, x1 = 0.6): 1007.21 ± 1.3 kg/m3
- speed of sound (323.15 K, x1 = 0.6): 1471 ± 3.9 m/s
- viscosity (323.15 K, x1 = 0.6): 5.011 ± 0.075 mPa·s
- mass density (323.15 K, x1 = 0.7001): 997.61 ± 1.4 kg/m3
- speed of sound (323.15 K, x1 = 0.7001): 1450.7 ± 3.9 m/s
- viscosity (323.15 K, x1 = 0.7001): 3.439 ± 0.052 mPa·s
- mass density (323.15 K, x1 = 0.8001): 988.58 ± 1.5 kg/m3
- speed of sound (323.15 K, x1 = 0.8001): 1434.7 ± 4 m/s
- viscosity (323.15 K, x1 = 0.8001): 2.429 ± 0.038 mPa·s
- mass density (323.15 K, x1 = 0.8995): 979.92 ± 1.6 kg/m3
- speed of sound (323.15 K, x1 = 0.8995): 1415.6 ± 4 m/s
- viscosity (323.15 K, x1 = 0.8995): 1.734 ± 0.028 mPa·s
- mass density (323.15 K, x1 = 1): 972.16 ± 1.8 kg/m3
- speed of sound (323.15 K, x1 = 1): 1400.6 ± 4 m/s
- viscosity (323.15 K, x1 = 1): 1.31 ± 0.02 mPa·s
